Results reported in ChEMBL document CHEMBL1144953, “Anti-androgens with full antagonistic activity toward human prostate tumor LNCaP cells with mutated androgen receptor” (Bioorg Med Chem Lett, 2003).

Molecular target: T1, Androgen receptor (Homo sapiens, UniProt P10275)
T1 sequence (P10275 whole entry): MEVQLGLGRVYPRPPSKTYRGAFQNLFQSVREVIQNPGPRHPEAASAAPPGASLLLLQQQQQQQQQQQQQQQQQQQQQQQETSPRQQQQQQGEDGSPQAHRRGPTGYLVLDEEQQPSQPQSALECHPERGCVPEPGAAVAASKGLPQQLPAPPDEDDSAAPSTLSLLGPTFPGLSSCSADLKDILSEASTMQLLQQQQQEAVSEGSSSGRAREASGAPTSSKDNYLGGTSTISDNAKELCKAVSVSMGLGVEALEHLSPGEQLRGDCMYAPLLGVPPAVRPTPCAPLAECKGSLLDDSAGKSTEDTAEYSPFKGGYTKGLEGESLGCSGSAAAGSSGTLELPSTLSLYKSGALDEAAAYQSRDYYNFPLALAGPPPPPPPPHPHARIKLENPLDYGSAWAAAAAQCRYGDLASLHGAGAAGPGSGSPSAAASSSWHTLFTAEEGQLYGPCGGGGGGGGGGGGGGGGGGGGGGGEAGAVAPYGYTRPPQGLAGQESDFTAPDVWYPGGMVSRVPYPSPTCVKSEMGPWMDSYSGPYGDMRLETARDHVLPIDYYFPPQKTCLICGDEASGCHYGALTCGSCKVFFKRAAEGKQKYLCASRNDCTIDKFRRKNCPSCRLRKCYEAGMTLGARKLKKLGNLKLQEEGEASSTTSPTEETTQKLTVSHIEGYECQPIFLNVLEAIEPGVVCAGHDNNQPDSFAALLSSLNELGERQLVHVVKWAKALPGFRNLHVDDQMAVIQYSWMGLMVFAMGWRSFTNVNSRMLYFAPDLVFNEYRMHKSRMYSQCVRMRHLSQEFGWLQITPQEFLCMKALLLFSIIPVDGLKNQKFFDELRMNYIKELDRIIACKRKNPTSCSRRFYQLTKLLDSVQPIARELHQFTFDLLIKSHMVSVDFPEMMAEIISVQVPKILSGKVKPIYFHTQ
Test: Dissociation constant against GST-hARLBD was measured in SC-3 cell by using [3H]testosterone as radioligand
Assay type: cell-based

SMILES: O=C1ON=C(c2ccccc2F)/C1=C/c1ccc(N2CCCC2)cc1
- Kd: 1.4 nM

SMILES: O=C1ON=C(c2ccc(F)cc2)/C1=C/c1ccc(N2CCCC2)cc1
- Kd: 1.4 nM

SMILES: CCCCN(CCCC)c1ccc(/C=C2\C(=O)ON=C2c2ccccc2)cc1
- Kd: 1.4 nM

SMILES: O=C1ON=C(c2ccc(O)cc2)/C1=C/c1ccc(N2CCCC2)cc1
- Kd: 1.4 nM
